Assay results from patent publication US20140193341A1, “HUMAN INDUCED NEURONAL CELLS” (priority 2011, published 2014).
“Also recorded” adds a separate entry of the source.

Legend:
Type in all cases: cell-based, human
[1] = test system: secreted Aβ40 and Aβ42; assay: Aβ40/Aβ42 sandwich ELISA of hiN cell culture media with ibuprofen treatment; settings: ibuprofen 250 μM
Procedure: sAPPβ ELISA was performed using BetaMar sAPP Beta ELISA, according to the manufacturer's instruction. Aβ quantification was performed by ELISAs (Cirrito et al., 2003). Media was conditioned for 48 hr prior to harvesting. Samples were analyzed for Aβ40 or Aβ42 using specific sandwich ELISAs. Briefly, Aβ40, and Aβ42 were captured using monoclonal antibodies targeted against amino acids 35-40 (HJ2.0), or 33-42 (HJ7.4) of Aβ, respectively. The antibodies HJ2.0, HJ5.1 and HJ7.4 were used. For Aβ40 and Aβ42 assays, a biotinylated central domain monoclonal antibody (HJ5.1) followed by streptavidin-poly-HRP-40 was used for detection. Assays were developed using Super Slow ELISA TMB and read on a VersaMax ELISA Microplate Reader. Aβ40, and Aβ42 standard curves were generated using purified peptides. The amount of Aβ was normalized to the cell density per well (relative to UND line as indicated in legend), and was expressed as pg/ml.

[2] = test system: GABA receptors; assay: GABA puff evoked currents in hiN cells; settings: GABA 1 mM puff, picrotoxin 50 μM
[3] = test system: hiN cells integrated into host brain; assay: Voltage-clamp recording of transplanted hiN cells in acutely prepared mouse brain slices; settings: for spontaneous excitatory postsynaptic currents (sEPSCs) under glutamatergic block: NBQX 20 μM and APV 50 μM
[4] = test system: glutamatergic receptor; assay: Spontaneous postsynaptic currents of hiN cells in murine glial coculture; settings: hiN cells held at −70 mV, murine glial monolayer coculture; NBQX/APV bath application
[5] = test system: AMPA and NMDA glutamatergic receptors; assay: Glutamate puff evoked postsynaptic currents in hiN cells; settings: glutamate 1 mM puff, NBQX 20 μM and APV 50 μM applied together
[6] = test system: sodium channel
[7] = test system: Na+ channel
[8] = test system: APP-positive puncta in hiN cells; assay: APP immunostaining of hiN cells, APP-positive puncta area per cell; settings: DAPT 10 μM, 18 hr
Procedure: Cells were fixed in 4% paraformaldehyde for 10 min at room temperature, followed by rinsing 3 times with phosphate-buffered saline (PBS). Cells were then permeabilized with 0.1% Triton X-100 in 1×PBS for 10 min at room temperature. After again rinsing 3 times with PBS, cells were incubated with blocking buffer containing 10% goat serum and 10 mg/ml BSA at room temperature for 1 hr. All primary antibodies were diluted in PBS. Cells were incubated with primary antibodies as listed at 4° C. for 12-16 hr, followed by the corresponding secondary antibody solutions in 37° C. for 1 hr. Cells were rinsed with 1×PBS three times followed by mounting of coverslips with anti-fade solution (Invitrogen). […]
Imaging was performed by laser-scanning confocal microscopy with a 63×/1.4 objective (LSM510, Can Zeiss) or by epifluorescence microscope (Olympus 1×71; Japan). hiN cell counts and fluorescence intensities were quantified by taking 10 to 35 images of randomly selected views per well. Subsequently, images were analyzed for cell counts and fluorescent intensity using Image J 1.42q software (National Institute of Health, USA). […]

[9] = test system: γ-secretase; assay: Aβ ELISA of media from hiN cultures treated with γ-secretase inhibitor; settings: DAPT 10 μM; hiN cell cultures
Procedure: APP ELISA was performed using a human APP ELISA kit (Invitrogen, Camarillo, Calif.), according to the manufacturer's instruction. Absorbance was read on a VersaMax ELISA Microplate Reader (Molecular Devices, Inc. Sunnyvale, Calif.) at 450 nm. The amount of APP was normalized to the total cell protein (determined with the DC Protein Assay Reagent kit; Bio-Rad, Hercules, Calif.). sAPPIβ and Aβ ELISA were performed on supernatant media from hiN cell cultures at 21 days after viral transduction. […] was performed using BetaMarkTM sAPP Beta ELISA kit (Covance, Princeton, N.J.), according to the manufacturer's instruction. The chemiluminescence was read on a microplate luminometer ([…] Plus, TECAN, Männedorf Switzerland). Aβ quantification was performed by ELISA as described previously (Cirrito et al., 2003). Media was conditioned for 48 hr prior to harvesting. Samples were analyzed for Aβ40 or Aβ42 using specific sandwich ELISAs. Briefly, Aβ40, and Aβ42 were captured using monoclonal antibodies targeted against amino acids 35-40 (HJ2.0), or 33-42 (HJ7.4) of Aβ, respectively. The antibodies HJ2.0, HJ5.1 and HJ7.4 were gifts from David M. Holtzman. […] All assays were developed using Super Slow ELISA TMB (Sigma) and read on a VersaMax ELISA Microplate Reader (Molecular Devices, Inc. Sunnyvale, Calif.) at 650 nm. […]

CC(C)Cc1ccc(C(C)C(=O)O)cc1 (centres unmarked) [ibuprofen]
increased Aβ40 and Aβ42 generation in FAD hiN cell cultures ([1]; FAD (Presenilin mutant) hiN cell cultures): failed to suppress; also recorded: resistant | elevated levels of secreted Aβ40 and Aβ42 in SAD hiN cell cultures ([1]; SAD hiN cell cultures): suppressed

picrotoxin
GABA evoked currents [2]: sensitive | frequency and amplitude of spontaneous excitatory postsynaptic currents (sEPSCs) ([3]; picrotoxin 50 μM): increased in frequency and amplitude

NS(=O)(=O)c1cccc2c1c([N+](=O)[O-])cc1nc(O)c(O)nc12 [NBQX, 2,3-dihydroxy-6-nitro-7 sulphamoyl-benzo[f]quinoxaline-2,3-dione]
spontaneous postsynaptic currents in glial coculture [4]: sensitive; also recorded: abolished | glutamate-mediated postsynaptic currents [5]: could be blocked; also recorded: sensitive | spontaneous excitatory postsynaptic currents (sEPSCs) under glutamatergic block [3]: suppressed; also recorded: drastically reduced

NC1=N[C@H](O)[C@H]2[C@H]3O[C@]4(O)O[C@@H]([C@@H](O)[C@@]2(N1)[C@@H]4O)[C@]3(O)CO [tetrodotoxin]
depolarization-induced action potentials [6]: could be inhibited; also recorded: could be blocked | fast inward Na+ currents [7]: sensitive

C[C@H](NC(=O)Cc1cc(F)cc(F)c1)C(=O)N[C@H](C(=O)OC(C)(C)C)c1ccccc1 [DAPT]
total APP-positive puncta area per cell, UND hiN cells [8]: partially phenocopied; also recorded: significant increase | production of Aβ in media [9]: suppressed

N[C@H](CCCP(=O)(O)O)C(=O)O [APV, D(−)-2-amino-5-phosphonovaleric acid]
spontaneous postsynaptic currents in glial coculture [4]: sensitive; also recorded: abolished | glutamate-mediated postsynaptic currents [5]: could be blocked; also recorded: sensitive | spontaneous excitatory postsynaptic currents (sEPSCs) under glutamatergic block [3]: suppressed; also recorded: drastically reduced
